Consider seven molecules from patent US20120135923A1, “Use of Melanocortins to Treat Dyslipidemia” (IPSEN PHARMA, S.A.S., priority 2009, published 2012).

Read-outs that look alike come from different tables or passages of the source. Bridge positions count the residues as written; N and C are the ends. Square brackets hold non-standard residues; d marks the D form. Peptide text beside a SMILES is read from it. Bip = N[C@@H](Cc1ccc(-c2ccccc2)cc1)C(=O)O; 2Nal = N[C@@H](Cc1ccc2ccccc2c1)C(=O)O; d2Nal = N[C@H](Cc1ccc2ccccc2c1)C(=O)O; hArg = N=C(N)NCCCC[C@H](N)C(=O)O; Nle = CCCC[C@H](N)C(=O)O; GABA = NCCCC(=O)O; βAla = NCCC(=O)O

Holding throughout (experiment): Radioligand binding assay, [125I]-NDP-α-MSH competition, CHO-K1 membranes
The target of one assay is T1, hMC1-R (Homo sapiens, UniProt Q01726).
T1 construct: expressed in transfected cells; host or cells: CHO-K1
T1 sequence (Q01726 whole entry): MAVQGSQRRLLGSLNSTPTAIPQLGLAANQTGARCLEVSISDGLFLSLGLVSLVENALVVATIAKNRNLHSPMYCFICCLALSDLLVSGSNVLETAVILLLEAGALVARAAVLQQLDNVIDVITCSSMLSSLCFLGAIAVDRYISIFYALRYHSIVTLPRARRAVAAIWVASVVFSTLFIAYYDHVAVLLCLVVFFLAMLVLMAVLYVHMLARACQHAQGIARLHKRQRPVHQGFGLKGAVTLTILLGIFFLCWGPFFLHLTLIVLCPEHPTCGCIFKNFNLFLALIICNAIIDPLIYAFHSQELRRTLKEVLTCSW

The next assay concerns the target T2, hMC3-R (Homo sapiens, UniProt P41968).
T2 construct: expressed in transfected cells; host or cells: CHO-K1

In a further assay the target is T3, hMC4-R (Homo sapiens, UniProt P32245).
T3 construct: expressed in transfected cells; host or cells: CHO-K1
T3 sequence (P32245 whole entry): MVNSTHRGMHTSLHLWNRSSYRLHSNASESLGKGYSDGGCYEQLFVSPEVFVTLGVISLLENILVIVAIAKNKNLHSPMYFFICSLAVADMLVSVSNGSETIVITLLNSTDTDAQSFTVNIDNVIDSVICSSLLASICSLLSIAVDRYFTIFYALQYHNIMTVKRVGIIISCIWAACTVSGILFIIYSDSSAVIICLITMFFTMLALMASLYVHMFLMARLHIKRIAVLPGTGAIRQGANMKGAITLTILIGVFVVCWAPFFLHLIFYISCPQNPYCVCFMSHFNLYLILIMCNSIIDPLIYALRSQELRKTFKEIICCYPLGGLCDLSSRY

The target in another assay is T4, hMC5-R (Homo sapiens, UniProt P33032).
T4 construct: expressed in transfected cells; host or cells: CHO-K1
T4 sequence (P33032 whole entry): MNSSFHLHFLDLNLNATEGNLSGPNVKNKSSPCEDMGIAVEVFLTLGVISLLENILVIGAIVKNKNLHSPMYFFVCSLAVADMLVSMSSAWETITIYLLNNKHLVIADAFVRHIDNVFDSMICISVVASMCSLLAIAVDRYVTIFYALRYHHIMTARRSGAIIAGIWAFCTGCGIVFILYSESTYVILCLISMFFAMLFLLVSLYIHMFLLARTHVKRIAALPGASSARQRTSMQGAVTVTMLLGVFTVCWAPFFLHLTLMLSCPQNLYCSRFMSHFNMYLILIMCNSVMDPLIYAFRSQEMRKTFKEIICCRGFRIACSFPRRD

T2 sequence (P41968 whole entry): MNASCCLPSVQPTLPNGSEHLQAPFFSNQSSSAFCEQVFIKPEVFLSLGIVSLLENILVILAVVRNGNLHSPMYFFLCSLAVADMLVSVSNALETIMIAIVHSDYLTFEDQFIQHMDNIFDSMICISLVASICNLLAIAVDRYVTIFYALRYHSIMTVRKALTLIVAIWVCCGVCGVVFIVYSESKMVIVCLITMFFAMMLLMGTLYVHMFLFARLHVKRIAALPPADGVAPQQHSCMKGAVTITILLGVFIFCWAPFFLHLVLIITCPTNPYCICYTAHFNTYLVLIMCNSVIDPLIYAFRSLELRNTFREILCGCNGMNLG

Regarding `CCCC[C@H](NC(C)=O)C(=O)N[C@H]1CSSC[C@@H](C(N)=O)NC(=O)[C@@H](C)NC(=O)[C@H](Cc2c[nH]c3ccccc23)NC(=O)[C@H](CCCNC(=N)N)NC(=O)[C@@H](Cc2ccccc2)NC(=O)[C@H](Cc2c[nH]cn2)NC(=O)[C@@H](C)NC1=O` [Ac-Nle-c(Cys-D-Ala-His-D-Phe-Arg-Trp-D-Ala-Cys)-NH2] (Ac-[Nle]C[dA]H[dF]RW[dA]C-NH2; disulfide 2-9), the Ki (usually a measure of affinity in units of concentration, obtained from inhibition or displacement) came out at 3.93 nM on hMC1-R (Table 5, read-out: Ki hMC1-R); 876 nM at hMC3-R (Table 5, read-out: Ki hMC3-R); 48 nM on hMC4-R (Table 5, read-out: Ki KMC4-R); 4940 nM on hMC5-R (Table 5, read-out: Ki hMC5-R).

In the case of `C[C@@H](O)[C@H](NC(=O)[C@H]1CSSC[C@H](NC(=O)[C@H](N)Cc2ccccc2)C(=O)N[C@@H](Cc2c[nH]cn2)C(=O)N[C@H](Cc2ccccc2)C(=O)N[C@@H](CCCCNC(=N)N)C(=O)N[C@@H](Cc2c[nH]c3ccccc23)C(=O)NCCC(=O)N1)C(N)=O` [D-Phe-c(Cys-His-D-Phe-hArg-Trp-β-Ala-D-Cys)-Thr-NH2] (H-[dF]CH[dF][hArg]W[βAla][dC]T-NH2; disulfide 2-8), the Ki on hMC1-R (Table 5, read-out: Ki hMC1-R) is 0.442 nM; at hMC3-R (Table 5, read-out: Ki hMC3-R), 123 nM; at hMC4-R (Table 5, read-out: Ki KMC4-R), 10.3 nM; on hMC5-R (Table 5, read-out: Ki hMC5-R), 521 nM.

`C[C@@H](O)[C@H](NC(=O)[C@H]1CSSC[C@H](NC(=O)[C@H](N)Cc2ccccc2)C(=O)N[C@@H](Cc2c[nH]cn2)C(=O)N[C@H](Cc2ccccc2)C(=O)N[C@@H](CCCNC(=N)N)C(=O)N[C@@H](Cc2ccc(-c3ccccc3)cc2)C(=O)NCCC(=O)N1)C(N)=O` [D-Phe-c(Cys-His-D-Phe-Arg-Bip-β-Ala-D-Cys)-Thr-NH2] (H-[dF]CH[dF]R[Bip][βAla][dC]T-NH2; disulfide 2-8): the Ki on hMC1-R (Table 5, read-out: Ki hMC1-R) came out at 5.8 nM; at hMC3-R (Table 5, read-out: Ki hMC3-R) it was 3370 nM; on hMC4-R (Table 5, read-out: Ki KMC4-R), 583 nM; on hMC5-R (Table 5, read-out: Ki hMC5-R) it was 1130 nM.

With `C[C@@H](O)[C@H](NC(=O)[C@H]1CSSC[C@H](NC(=O)[C@H](N)Cc2ccccc2)C(=O)N[C@@H](Cc2c[nH]cn2)C(=O)N[C@H](Cc2ccccc2)C(=O)N[C@@H](CCCCNC(=N)N)C(=O)N[C@@H](Cc2ccc(-c3ccccc3)cc2)C(=O)NCCC(=O)N1)C(N)=O` [D-Phe-c(Cys-His-D-Phe-hArg-Bip-β-Ala-D-Cys)-Thr-NH2] (H-[dF]CH[dF][hArg][Bip][βAla][dC]T-NH2; disulfide 2-8 (inferred)), the Ki at hMC1-R (Table 5, read-out: Ki hMC1-R) stood at 1.68 nM; on hMC3-R (Table 5, read-out: Ki hMC3-R), 1260 nM; on hMC4-R (Table 5, read-out: Ki KMC4-R), 172 nM; on hMC5-R (Table 5, read-out: Ki hMC5-R) it was 1220 nM.

Regarding `C[C@@H](O)[C@H](NC(=O)[C@H]1CSSC[C@H](NC(=O)[C@H](N)Cc2ccccc2)C(=O)N[C@@H](Cc2c[nH]cn2)C(=O)N[C@H](Cc2ccccc2)C(=O)N[C@@H](CCCNC(=N)N)C(=O)N[C@@H](Cc2c[nH]c3ccccc23)C(=O)NCCCC(=O)N1)C(N)=O` [D-Phe-c(Cys-His-D-Phe-Arg-Trp-Gaba-D-Cys)-Thr-NH2] (H-[dF]CH[dF]RW[GABA][dC]T-NH2; disulfide 2-8), the Ki on hMC1-R (Table 5, read-out: Ki hMC1-R) turned out to be 0.42 nM; at hMC3-R (Table 5, read-out: Ki hMC3-R), 106 nM; on hMC4-R (Table 5, read-out: Ki KMC4-R) it was 4.75 nM; on hMC5-R (Table 5, read-out: Ki hMC5-R) it was 1260 nM.

Regarding `C[C@@H]1C(=O)N[C@@H](Cc2cnc[nH]2)C(=O)N[C@H](Cc2ccccc2)C(=O)N[C@@H](CCCNC(=N)N)C(=O)N[C@@H](Cc2c[nH]c3ccccc23)C(=O)N[C@H](C(N)=O)CCNC(=O)CC[C@@H]2NC(=O)N1C2=O` [c[Hydantoin(C(O)-(Glu-D-Ala))-His-D-Phe-Arg-Trp-Dab]-NH2], the Ki at hMC1-R (Table 7, read-out: Ki hMC1) turned out to be 28 nM; at hMC3-R (Table 7, read-out: Ki hMC3) it was 90.5 nM; at hMC4-R (Table 7, read-out: Ki hMC4) it was 12.7 nM; at hMC5-R (Table 7, read-out: Ki hMC5) it was 877 nM.

On to `CCCC[C@H](NC(C)=O)C(=O)N[C@H]1CSSC[C@@H](C(N)=O)NC(=O)[C@H](Cc2ccc3ccccc3c2)NC(=O)[C@H](CCCNC(=N)N)NC(=O)[C@@H](Cc2ccc3ccccc3c2)NC(=O)[C@H](Cc2c[nH]cn2)NC(=O)[C@@H](C)NC1=O` [Ac-Nle-c(Cys-D-Ala-His-D-2-Nal-Arg-2-Nal-Cys)-NH2] (Ac-[Nle]C[dA]H[d2Nal]R[2Nal]C-NH2; disulfide 2-8), for which the Ki was 32.5 nM at hMC1-R (Table 5, read-out: Ki hMC1-R); 5.85 nM on hMC3-R (Table 5, read-out: Ki hMC3-R); 2.53 nM on hMC4-R (Table 5, read-out: Ki KMC4-R); 94.6 nM at hMC5-R (Table 5, read-out: Ki hMC5-R).
